Results on seven compounds are retold here after patent publication US12357702B2, “Peptidic diagnostic compositions” (S. M. Discovery Group Inc., priority 2013, dated 2025).

Where a SMILES comes first, the peptide text is derived from it. Where no end group is shown, it is not given here. The star is where a group is joined. RhodamineB = CCN(CC)c1ccc2c(-c3ccccc3C(=O)*)c3ccc(=[N+](CC)CC)cc-3oc2c1; 5FAM = O=C1OC2(c3ccc(O)cc3Oc3cc(O)ccc32)c2ccc(C(=O)*)cc21; FAM = fluorescein amidite label

In data set [1] the test system is hCMEC/D3 cells. The data set is described as follows: double peptide-mediated GFP plasmid transfection. The format is cell-based, human. As for the experimental part:
To evaluate double peptide (DP)-mediated gene transfection, different concentrations of DP and constant amounts of pcDNA3.1 NT-GFP expression plasmid (0.3 μg) (the peptide/DNA change ration of 1:10, 1:20 and 1:40 were investigated in this study) were mixed into 50 μL serum free media, and complexes were formed for 1 h at room temperature, after which another 150 μL serum free media was added (total volume of peptide/DNA complex was 200 μL). The cultured hCMEC/D3 cells (2×10^4 cells) were overlaid with 200 μL peptide/DNA complex, followed by incubation for 4 h at 37° C. in 5% CO2 atmosphere. The cultures were then a washed once with serum-free media and transferred to complete media containing 5% serum for growth. After 48 h, GFP gene expressions were monitored by fluorescence microscopy. Lipofectamine® 2000-mediated transfections were performed as described by the manufacturer's protocol (Life Technologies, CA, USA).

In data set [2] the test system is hCMEC/D3 cells. The data set is described as follows: uptake of FAM-CGY and FAM-GYR-GYR peptides by FACS. The format is cell-based, human. To be noted: 1-10 μM, 24 h, all tested concentrations. The procedure: The different cellular uptake of FAM-CGY and FAM-GYR-GYR peptides in hCMEC/D3 cells was investigated by flow cytometry (FACS). hCMEC/D3 cells (2×10^4/cm^2) were seeded on 24-well plate (Corning, NY) and grown 2 days at 37° C. and 5% CO2 in order to reach 60%-70% confluency. The cells were washed 3 times with pre-heated PBS. The peptide uptake experiments were initiated by adding 200 μL of a range of FAM-CGY and FAM-GYR-GYR in different concentrations (1-10 μM/L, diluted in cell medium containing serum). The double peptide contains the sequence […](SEQ ID NO: 2) and optionally has an N-terminal cysteine residue.
After 24 h incubation at 37° C. with 5% CO2, each chamber was washed with pre-heated PBS 3 times, and harvested by trypsinization. A total of 10,000 cells were analyzed by flow cytometry (FACS Array™ Cell Analysis, BD, USA) (FIG. 35).

The subject of data set [3] is hCMEC/D3 cells. Put plainly: LDH cytotoxicity assay. The format is cell-based, human. To be noted: 24 h; for LDH leakage in the medium compared to the control: 1 to 20 μM peptide. As for the experimental part:
Cell viability assessment following treatment of cells with the fluorescent peptide FIG. 26A or siRNA/FAM-CGY complex FIG. 26B for 24 h, determined by LDH assay (n=6). Background: untreated cells. To examine the cytotoxicity of the peptide and the siRNA/FAM-CGY complex, the hCMEC/D3 cells were incubated with concentrations 1, 2, 5, 10, 20 μM of the peptide and different relations of siRNA/FAM-CGY complexes (8:5, 16:5 or 24:5) for 24 h, the viability of cells without treatment was used as a control. The cytotoxicity was measured by a LDH assay. The LDH assay measures the membrane integrity as a function of the amount of cytoplasmic LDH leaked into the medium.
The cytoxicity of FAM-CGY peptide and siRNA/FAM-CGY complex was evaluated by […] (LDH) assay (FIG. 26). The hCMEC/D3 cells were incubated with different concentrations of the peptide (from 1 to 20 μM) and different formulations of siRNA/FAM-CGY complexes for 24 h. The viability of cells without treatment was used as a control. The LDH assay has means of measuring the membrane integrity as a function of the amount of cytoplasmic LDH leaked into the medium. […] Thus, there were no significant differences observed between the groups treated with FAM-CGY, FAM-d-CGY and CGY-FAM.

Data set [4] has as its system complement activation products SC5d-9, C5a, and C3a. Put plainly: complement activation in human serum. To be noted: healthy human serum, low and high concentration. As for the experimental part:
FIGS. 12A, 12B, and 12C are graphs illustrating a complement activation experiment. The complement activation products FIG. 12A. […], FIG. 12B. C5a, and FIG. 12C. C3a were quantified in healthy human serum after incubation of CGY, FAM-CGY and FAM-d-CGY peptide at low and high concentration. Background noise and positive control (Zymosan) are presented for each product. Complement activation and fixation is a fundamental process contributing to macrophage clearance of intravenously injected nanopaticles. Accordingly, complement activation studies in human serum were performed with low and high concentrations of FAM-CGY peptide and other peptides (CGY, FAM-d-CGY) for comparison. […] The responses were relatively low, and close to the background activation. Only a slight level of complement activation was observed compared to the positive control (Zymosan). There were no systematic differences between the activation below and above CMC. Conclusion: The FAM-CGY nanoparticles are unlikely to induce complement-mediated immune reactions following intravenous injection.

Data set [5] is described as follows: Nanoparticle Tracking Analysis (NTA) of peptide self-assembly. The format is physicochemical. To be noted: in MQ water. The procedure: To investigate whether the polypeptide conjugate can self-assemble, Nanoparticle Tracking Analysis (NTA) technology was employed to detect the peptide aggregation. Briefly, 1 mL peptide solutions with different concentrations (0.5, 1, 2.5 and 5 μM) were prepared by diluting the peptide stock solutions (500 μM) with MQ water and incubate for 30 min at room temperature. NTA measurements were performed with a NanoSight LM20 (NanoSight Ltd., Amesbury, United Kingdom) equipped with a sample chamber with a 405 nm blue laser and a Viton fluoroelastomer O-ring. The peptide samples were injected in the sample chamber with sterile syringes (BD Discardit II, New Jersey, USA) until the liquid reached the tip of the nozzle. All measurements were performed at room temperature. For the pH effect of FAM-CGY peptide assembly, FAM-CGY stock solution (500 μM) was diluted into 5 μM with 10 mM HEPES buffer where pH values were adjusted with 1 M HCl or 1 M NaOH, respectively.
Different molar rates of siRNA were added to the FAM-CGY peptide solution (50 μM/L) dropwise in saline solution and incubated for 30 min. […] The atomic force microscopy (AFM) (FIG. 22A), nanoparticle tracking analysis (NTA) (FIG. 22B), fluorescence microscopy (not shown), dynamic light scattering (DLS) technology (not shown) and transmission electron microscopy (TEM) (FIG. 23) were employed to characterize the siRNA/FAM-CGY complex. […]

Data set [6] deals with hCMEC/D3 cells. Put plainly: delivery of cargo peptides by Rh-CGY or CGY peptidic complexes (microscopy, FACS). The format is cell-based, human. To be noted: 10 μM Rh-CGY or CGY peptide, 24 h. As for the experimental part: Peptidic complexes were formed by drop addition of cargoes (FAM-(C)-NAP, FAM-GYR, FAM-NAP, FAM) to 80 μM rhodamine-conjugated CGY peptide (Rh-CGY) or 80 μM CGY peptide (Table X) in MilliQ (MQ) water with equitable liquid volume and incubated for 60 min. The mixture was diluted with MQ water to a final Rh-CGY or CGY peptide concentration of 10 μM. The peptidic complexes were characterized by NTA for size and electron microscopy (EM) for mophology. Western blot was also employed to detect disulfide bond, which form between the cargo and Rh-CGY peptide or CGY peptide. Briefly, the peptide or complex samples were loaded on 10% Bis-Tris mini gels (Invitrogen, CA, USA) and subjected to electrophoresis. The separated samples were electrophoretically transferred to PVDF membranes by use of an iBlot™ Gel Transfer Device (Life Technologies, USA). Membranes were blocked for 1 h at room temperature in 3% BSA/TBST (137 mM Sodium Chloride, 20 mM Tris, 0.1% Tween-20, pH 7.6), and incubated over night at 4° C. with HRP-Goat anti-Fluorescein antibody (diluted 1:1000 in 2% BSA/TBST). For detection, membranes were incubated with Novex® ECL Chemiluminescent Substrate Reagent Kit (Invitrogen, CA, USA).
Delivery peptide to hCMEC/D3 cells. […] Live cell images were obtained by widefield microscopy, and the intercellular fluorescence intensity was quantified by FACS.

Data set [7] relates to brain capillary endothelial cells. To be noted: cited from earlier work.

Take GYRPVHNIRGHWAPGGGYRPVHNIRGHWAPG [DP]: the “translocation of plasmids into cells” value in data set [1] (charge ratios of peptide/DNA more than 20) is reported as “able to mediate translocation of plasmids into cells”. Moreover, in data set [1] (peptide/DNA charge ratio 40:1, 48 h), the “transfection efficiency (GFP fluorescence intensity)” value is given as “comparable with commercial transfection reagent Lipofectamine® 2000”.
With “FAM-GYR-GYR: FAM-labelled double peptide containing SEQ ID NO: 2, two GYR sequences joined by a glycine residue ({FAM}-GYRPVHNIRGHWAPGGGYRPVHNIRGHWAPG)”, the “uptake compared with FAM-CGY peptide (FACS)” value in data set [2] is “considerably higher uptake”.
On to “5-FAM-dCys-dGly-dTyr-dArg-dPro-dVal-dHis-dAsn-dIle-dArg-dGly-dHis-dTrp-dAla-dPro-dGly [FAM-d-CGY]”, for which the “LDH leakage in the medium compared to the control” value in data set [3] is on record as “did not significantly increase”.
For the compound `CC[C@H](C)[C@H](NC(=O)[C@H](CC(N)=O)NC(=O)[C@H](Cc1c[nH]cn1)NC(=O)[C@@H](NC(=O)[C@@H]1CCCN1C(=O)[C@H](CCCNC(=N)N)NC(=O)[C@H](Cc1ccc(O)cc1)NC(=O)CNC(=O)[C@H](CS)NC(=O)c1ccc2c(c1)C(=O)OC21c2ccc(O)cc2Oc2cc(O)ccc21)C(C)C)C(=O)N[C@@H](CCCNC(=N)N)C(=O)NCC(=O)N[C@@H](Cc1c[nH]cn1)C(=O)N[C@@H](Cc1c[nH]c2ccccc12)C(=O)N[C@@H](C)C(=O)N1CCC[C@H]1C(=O)NCC(=O)O` [FAM-CGY] (5FAM-CGYRPVHNIRGHWAPG-OH), in data set [3], the “LDH leakage in the medium compared to the control” value is given as “did not significantly increase” and the “cytotoxicity (LDH assay)” value was “no significant cytotoxicity”. In addition, the “effect on the level of complement activation products SC5d-9, C5a, and C3a” value in data set [4] is “no significant effect”.
As for “Cys-Gly-Tyr-Arg-Pro-Val-His-Asn-Ile-Arg-Gly-His-Trp-Ala-Pro-Gly-Lys-5-FAM (CGYRPVHNIRGHWAPGK(5FAM); not fully specified (C-terminus); printed as Cys-Gly-Tyr-Arg-Pro-Val-His-Asn-Ile-Arg-Gly-His-Trp-Ala-Pro-Gly-Lys-5-FAM) [CGY-FAM]”, the “LDH leakage in the medium compared to the control” value in data set [3] is “did not significantly increase”.
For “Rh-CGY: Rhdomine B conjugated with CGY peptide in the N-terminal (RhodamineB-CGYRPVHNIRGHWAPG)”, in data set [5], the “mean (average) size of self-assembly (NTA)” value stood at 131±60 nm and the “mode (modal size) of self-assembly (NTA)” value is 94 nm. Further, the “uptake / delivery of cargo into hCMEC/D3 cells” value in data set [6] was “can efficiently enter the hCMEC/D3 cells”.
For “GYRPVHNIRGHWAPG [SEQ ID NO: 1, targeting peptide of WO2011/005098]”, the “liposome uptake when peptide is coupled to liposomes” value in data set [7] was “did not significantly increase liposome uptake”.
